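Cells were grown in 96-well plates and exposed to each compound for 48 hours at five concentrations; endpoints were interpolated linearly between bracketing concentrations, or set to the highest concentration if not reached. TGI: total growth inhibition.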
How the values were obtained:
Test in all cases: DTP human tumour cell line panel, 48 h
786-0 renal = tested on: 786-0 renal
A498 renal = tested on: A498 renal
A549 NSCLC = tested on: A549 NSCLC
ACHN renal = tested on: ACHN renal
CAKI-1 renal = tested on: CAKI-1 renal
COLO 205 colon = tested on: COLO 205 colon
DLD-1 colon = tested on: DLD-1 colon
EKVX NSCLC = tested on: EKVX NSCLC
HCC-2998 colon = tested on: HCC-2998 colon
HCT-116 colon = tested on: HCT-116 colon
HCT-15 colon = tested on: HCT-15 colon
HL-60(TB) leukemia = tested on: HL-60(TB) leukemia
HOP-62 NSCLC = tested on: HOP-62 NSCLC
HOP-92 NSCLC = tested on: HOP-92 NSCLC
HT29 colon = tested on: HT29 colon
IGROV1 ovarian = tested on: IGROV1 ovarian
K-562 leukemia = tested on: K-562 leukemia
KM12 colon = tested on: KM12 colon
KM20L2 colon = tested on: KM20L2 colon
LOX IMVI melanoma = tested on: LOX IMVI melanoma
LXFL 529 NSCLC = tested on: LXFL 529 NSCLC
M14 melanoma = tested on: M14 melanoma
M19-MEL melanoma = tested on: M19-MEL melanoma
MALME-3M melanoma = tested on: MALME-3M melanoma
MOLT-4 leukemia = tested on: MOLT-4 leukemia
NCI-H226 lung = tested on: NCI-H226 lung
NCI-H23 lung = tested on: NCI-H23 lung
NCI-H460 lung = tested on: NCI-H460 lung
OVCAR-3 ovarian = tested on: OVCAR-3 ovarian
OVCAR-4 ovarian = tested on: OVCAR-4 ovarian
OVCAR-5 ovarian = tested on: OVCAR-5 ovarian
OVCAR-8 ovarian = tested on: OVCAR-8 ovarian
RPMI-8226 leukemia = tested on: RPMI-8226 leukemia
RXF 393 renal = tested on: RXF 393 renal
RXF-631 renal = tested on: RXF-631 renal
SF-268 CNS = tested on: SF-268 CNS
SF-295 CNS = tested on: SF-295 CNS
SF-539 CNS = tested on: SF-539 CNS
SK-MEL-2 melanoma = tested on: SK-MEL-2 melanoma
SK-MEL-28 melanoma = tested on: SK-MEL-28 melanoma
SK-MEL-5 melanoma = tested on: SK-MEL-5 melanoma
SK-OV-3 ovarian = tested on: SK-OV-3 ovarian
SN12C renal = tested on: SN12C renal
SNB-19 CNS = tested on: SNB-19 CNS
SNB-75 CNS = tested on: SNB-75 CNS
SNB-78 CNS = tested on: SNB-78 CNS
SR leukemia = tested on: SR leukemia
SW-620 colon = tested on: SW-620 colon
TK-10 renal = tested on: TK-10 renal
U251 CNS = tested on: U251 CNS
UACC-257 melanoma = tested on: UACC-257 melanoma
UACC-62 melanoma = tested on: UACC-62 melanoma
UO-31 renal = tested on: UO-31 renal
XF 498 CNS = tested on: XF 498 CNS
CCRF-CEM leukemia = tested on: CCRF-CEM leukemia
DMS 114 small cell lung = tested on: DMS 114 small cell lung
DMS 273 small cell lung = tested on: DMS 273 small cell lung
NCI-H522 lung = tested on: NCI-H522 lung

For `O=C(COc1ccc2c(=O)cc(-c3ccc(Cl)cc3)oc2c1)N1CCN(c2ccccc2)CC1`, the TGI (786-0 renal) was > 100 µM, the TGI (A498 renal) was > 100 µM and the TGI (A549 NSCLC) was > 100 µM. The TGI (ACHN renal) was > 100 µM, the TGI (CAKI-1 renal) was > 100 µM and the TGI (COLO 205 colon) was > 100 µM. The TGI (DLD-1 colon) was > 100 µM, the TGI (EKVX NSCLC) was > 100 µM and the TGI (HCC-2998 colon) was > 100 µM. For the same molecule, the TGI (HCT-116 colon) was > 100 µM, the TGI (HCT-15 colon) was > 100 µM and the TGI (HL-60(TB) leukemia) was > 100 µM. The TGI (HOP-62 NSCLC) was > 100 µM, the TGI (HOP-92 NSCLC) was > 100 µM and the TGI (HT29 colon) was > 100 µM. For the same molecule, the TGI (IGROV1 ovarian) was > 100 µM, the TGI (K-562 leukemia) was > 100 µM and the TGI (KM12 colon) was > 100 µM. The TGI (KM20L2 colon) was > 100 µM, the TGI (LOX IMVI melanoma) was > 100 µM and the TGI (LXFL 529 NSCLC) was > 100 µM. For the same molecule, the TGI (M14 melanoma) was > 100 µM, the TGI (M19-MEL melanoma) was > 100 µM and the TGI (MALME-3M melanoma) was > 100 µM. For the same molecule, the TGI (MOLT-4 leukemia) was > 100 µM, the TGI (NCI-H226 lung) was > 100 µM and the TGI (NCI-H23 lung) was > 100 µM. The TGI (NCI-H460 lung) was > 100 µM, the TGI (OVCAR-3 ovarian) was > 100 µM and the TGI (OVCAR-4 ovarian) was > 100 µM. For the same molecule, the TGI (OVCAR-5 ovarian) was > 100 µM, the TGI (OVCAR-8 ovarian) was > 100 µM and the TGI (RPMI-8226 leukemia) was > 100 µM. For the same molecule, the TGI (RXF 393 renal) was > 100 µM, the TGI (RXF-631 renal) was > 100 µM and the TGI (SF-268 CNS) was > 100 µM. The TGI (SF-295 CNS) was > 100 µM, the TGI (SF-539 CNS) was > 100 µM and the TGI (SK-MEL-2 melanoma) was > 100 µM. For the same molecule, the TGI (SK-MEL-28 melanoma) was > 100 µM, the TGI (SK-MEL-5 melanoma) was > 100 µM and the TGI (SK-OV-3 ovarian) was > 100 µM. For the same molecule, the TGI (SN12C renal) was > 100 µM, the TGI (SNB-19 CNS) was > 100 µM and the TGI (SNB-75 CNS) was > 100 µM. The TGI (SNB-78 CNS) was > 100 µM, the TGI (SR leukemia) was > 100 µM and the TGI (SW-620 colon) was > 100 µM. For the same molecule, the TGI (TK-10 renal) was > 100 µM, the TGI (U251 CNS) was > 100 µM and the TGI (UACC-257 melanoma) was > 100 µM. The TGI (UACC-62 melanoma) was > 100 µM, the TGI (UO-31 renal) was > 100 µM and the TGI (XF 498 CNS) was > 100 µM.

`Cc1[nH]c2ccccc2c1-c1n[nH]c(=O)c2ccccc12` was tested, and the TGI (786-0 renal) was > 100 µM, the TGI (A498 renal) was 63.5 µM and the TGI (A549 NSCLC) was > 100 µM. The TGI (ACHN renal) was > 100 µM, the TGI (CAKI-1 renal) was > 100 µM and the TGI (CCRF-CEM leukemia) was > 100 µM. The TGI (DLD-1 colon) was > 100 µM, the TGI (DMS 114 small cell lung) was 58.7 µM and the TGI (DMS 273 small cell lung) was 72.9 µM. The TGI (EKVX NSCLC) was > 100 µM, the TGI (HCC-2998 colon) was > 100 µM and the TGI (HCT-116 colon) was 35.8 µM. The TGI (HCT-15 colon) was > 100 µM, the TGI (HL-60(TB) leukemia) was 55.6 µM and the TGI (HOP-62 NSCLC) was 50.3 µM. For the same molecule, the TGI (HT29 colon) was > 100 µM, the TGI (IGROV1 ovarian) was > 100 µM and the TGI (K-562 leukemia) was > 100 µM. The TGI (KM12 colon) was > 100 µM, the TGI (KM20L2 colon) was 92.6 µM and the TGI (LXFL 529 NSCLC) was > 100 µM. The TGI (M14 melanoma) was > 100 µM, the TGI (M19-MEL melanoma) was > 100 µM and the TGI (MALME-3M melanoma) was 74.4 µM. The TGI (MOLT-4 leukemia) was 81.3 µM, the TGI (NCI-H226 lung) was 85.3 µM and the TGI (NCI-H23 lung) was > 100 µM. The TGI (NCI-H460 lung) was > 100 µM, the TGI (OVCAR-3 ovarian) was 67.3 µM and the TGI (OVCAR-4 ovarian) was > 100 µM. The TGI (OVCAR-5 ovarian) was > 100 µM, the TGI (OVCAR-8 ovarian) was > 100 µM and the TGI (RPMI-8226 leukemia) was 74.7 µM. For the same molecule, the TGI (RXF 393 renal) was 37.1 µM, the TGI (RXF-631 renal) was 66.1 µM and the TGI (SF-295 CNS) was 91.8 µM. The TGI (SF-539 CNS) was > 100 µM, the TGI (SK-MEL-2 melanoma) was > 100 µM and the TGI (SK-MEL-28 melanoma) was > 100 µM. The TGI (SK-MEL-5 melanoma) was 41 µM, the TGI (SK-OV-3 ovarian) was 72.1 µM and the TGI (SNB-75 CNS) was 57.9 µM. The TGI (SNB-78 CNS) was > 100 µM, the TGI (SW-620 colon) was > 100 µM and the TGI (TK-10 renal) was > 100 µM. For the same molecule, the TGI (U251 CNS) was > 100 µM, the TGI (UACC-257 melanoma) was > 100 µM and the TGI (UACC-62 melanoma) was > 100 µM. The TGI (UO-31 renal) was 61.9 µM and the TGI (XF 498 CNS) was 76.2 µM.

`Cc1ccc(S(=O)(=O)CC(=O)CC(=O)C(=O)Nc2cccc(C(F)(F)F)c2)cc1` was tested, and the TGI (786-0 renal) was > 100 µM, the TGI (A549 NSCLC) was > 100 µM and the TGI (ACHN renal) was > 100 µM. For the same molecule, the TGI (CAKI-1 renal) was > 100 µM, the TGI (CCRF-CEM leukemia) was > 100 µM and the TGI (DLD-1 colon) was > 100 µM. For the same molecule, the TGI (DMS 273 small cell lung) was > 100 µM, the TGI (EKVX NSCLC) was > 100 µM and the TGI (HCT-116 colon) was > 100 µM. For the same molecule, the TGI (HCT-15 colon) was > 100 µM, the TGI (HL-60(TB) leukemia) was > 100 µM and the TGI (HOP-92 NSCLC) was > 100 µM. For the same molecule, the TGI (HT29 colon) was > 100 µM, the TGI (IGROV1 ovarian) was > 100 µM and the TGI (K-562 leukemia) was > 100 µM. For the same molecule, the TGI (KM12 colon) was > 100 µM, the TGI (KM20L2 colon) was > 100 µM and the TGI (LOX IMVI melanoma) was > 100 µM. For the same molecule, the TGI (LXFL 529 NSCLC) was > 100 µM, the TGI (M14 melanoma) was > 100 µM and the TGI (M19-MEL melanoma) was > 100 µM. For the same molecule, the TGI (MALME-3M melanoma) was > 100 µM, the TGI (MOLT-4 leukemia) was > 100 µM and the TGI (NCI-H226 lung) was > 100 µM. For the same molecule, the TGI (NCI-H23 lung) was > 100 µM, the TGI (NCI-H522 lung) was > 100 µM and the TGI (OVCAR-3 ovarian) was > 100 µM. The TGI (RPMI-8226 leukemia) was > 100 µM, the TGI (RXF-631 renal) was > 100 µM and the TGI (SF-268 CNS) was > 100 µM. For the same molecule, the TGI (SF-295 CNS) was > 100 µM, the TGI (SF-539 CNS) was > 100 µM and the TGI (SK-MEL-2 melanoma) was > 100 µM. For the same molecule, the TGI (SK-MEL-28 melanoma) was > 100 µM, the TGI (SK-MEL-5 melanoma) was > 100 µM and the TGI (SK-OV-3 ovarian) was > 100 µM. For the same molecule, the TGI (SN12C renal) was > 100 µM, the TGI (SNB-19 CNS) was > 100 µM and the TGI (SNB-75 CNS) was > 100 µM. For the same molecule, the TGI (SNB-78 CNS) was > 100 µM, the TGI (SR leukemia) was > 100 µM and the TGI (SW-620 colon) was > 100 µM. For the same molecule, the TGI (TK-10 renal) was > 100 µM, the TGI (U251 CNS) was > 100 µM and the TGI (UACC-257 melanoma) was > 100 µM. The TGI (UACC-62 melanoma) was > 100 µM, the TGI (UO-31 renal) was > 100 µM and the TGI (XF 498 CNS) was > 100 µM.
